Experimental data published in ChEMBL document CHEMBL4627402, “Design and Synthesis of Styrenylcyclopropylamine LSD1 Inhibitors” (ACS Med Chem Lett, 2020).
Calls of active or inactive are those of the source. No cut-off for these calls is given here.

Columns and labels:
[1] = Protein binding in plasma (unknown origin) assessed as parent compound remaining; format: ADME, cell-free
[2] = Metabolic stability in rat liver microsomes assessed as intrinsic clearance; format: ADME, Microsome; conditions: read-out: CLH
[3] = biological target: T1, Lysine-specific histone demethylase 1A (Homo sapiens, UniProt O60341)
[4] = Metabolic stability in mouse liver microsomes assessed as intrinsic clearance; format: ADME, Microsome; conditions: read-out: CLH
[5] = Metabolic stability in human liver microsomes assessed as intrinsic clearance; format: ADME, Microsome; conditions: read-out: CLH
Kasumi 1 [6] = assay: Growth inhibition on human Kasumi-1 cells measured upto 12 days by Cell Titer-Glo luminescent cell viability assay; format: functional; conditions: Kasumi 1, 288 h
[7] = biological target: T1, Lysine-specific histone demethylase 1A; remark: listed apart in the source
Description: Inhibition of LSD1 in human MV4-11 cells assessed as induction of LY96 mRNA expression incubated for 16 hrs by chemiluminescent method

[8] = Metabolic stability in dog liver microsomes assessed as intrinsic clearance; format: ADME, Canis lupus familiaris, Microsome; conditions: read-out: CLH
[9] = biological target: T1, Lysine-specific histone demethylase 1A; remark: listed apart in the source
[10] = biological target: T1, Lysine-specific histone demethylase 1A; remark: listed apart in the source
[11] = biological target: T1, Lysine-specific histone demethylase 1A; remark: listed apart in the source
MV4-11 = assay: Growth inhibition on human MV4-11 cells measured upto 12 days by Cell Titer-Glo luminescent cell viability assay; format: functional; conditions: MV4-11, 288 h
MOLM-13 = assay: Growth inhibition on human MOLM13 cells measured upto 12 days by Cell Titer-Glo luminescent cell viability assay; format: functional; conditions: MOLM-13, 288 h
NOMO-1 = assay: Growth inhibition on human NOMO1 cells measured upto 12 days by Cell Titer-Glo luminescent cell viability assay; format: functional; conditions: NOMO-1, 288 h
[12] = Toxicity in CB17 SCID mouse xenografted with human Kasumi-1 cells assessed body weight loss at 1.5 mg/kg, po administered for 14 days; format: organism-based; conditions: in vivo, 336 h
[13] = Oral bioavailability in mouse at 5 mg/kg; format: ADME, organism-based; conditions: in vivo
[14] = Half life in mouse at 1 mg/kg, iv; format: ADME, organism-based; conditions: in vivo
Kasumi 1 [15] = assay: Antitumor activity against human Kasumi-1 cells xenografted in oral dosed CB17 SCID mouse assessed as tumor growth inhibition administered for 14 days; format: functional, organism-based
SET-2 = assay: Growth inhibition on human SET2 cells measured upto 12 days by Cell Titer-Glo luminescent cell viability assay; format: functional; conditions: SET-2, 288 h
[16] = Toxicity in CB17 SCID mouse xenografted with human Kasumi-1 cells assessed body weight loss at 0.5 mg/kg, po administered for 14 days; format: organism-based; conditions: in vivo, 336 h
[17] = AUC (0 to infinity) in mouse at 5 mg/kg, po; format: ADME, organism-based; design: dose 5 mg/kg, time infinity, route oral; conditions: in vivo
SKM-1 = assay: Growth inhibition on human SKM1 cells measured upto 12 days by Cell Titer-Glo luminescent cell viability assay; format: functional; conditions: SKM-1, 288 h
OCI-AML-5 = assay: Growth inhibition on human OCI-AML5 cells measured upto 12 days by Cell Titer-Glo luminescent cell viability assay; format: functional; conditions: OCI-AML-5, 288 h
[18] = Cmax in mouse at 5 mg/kg, po; format: ADME, organism-based; design: dose 5 mg/kg, route oral; conditions: in vivo
[19] = Clearance in mouse at 1 mg/kg, iv; format: ADME, organism-based; conditions: in vivo
[20] = biological target: T2, Amine oxidase [flavin-containing] B (Homo sapiens, UniProt P27338); assay: Inhibition of MAO-B (unknown origin)
T2 sequence (P27338 whole entry): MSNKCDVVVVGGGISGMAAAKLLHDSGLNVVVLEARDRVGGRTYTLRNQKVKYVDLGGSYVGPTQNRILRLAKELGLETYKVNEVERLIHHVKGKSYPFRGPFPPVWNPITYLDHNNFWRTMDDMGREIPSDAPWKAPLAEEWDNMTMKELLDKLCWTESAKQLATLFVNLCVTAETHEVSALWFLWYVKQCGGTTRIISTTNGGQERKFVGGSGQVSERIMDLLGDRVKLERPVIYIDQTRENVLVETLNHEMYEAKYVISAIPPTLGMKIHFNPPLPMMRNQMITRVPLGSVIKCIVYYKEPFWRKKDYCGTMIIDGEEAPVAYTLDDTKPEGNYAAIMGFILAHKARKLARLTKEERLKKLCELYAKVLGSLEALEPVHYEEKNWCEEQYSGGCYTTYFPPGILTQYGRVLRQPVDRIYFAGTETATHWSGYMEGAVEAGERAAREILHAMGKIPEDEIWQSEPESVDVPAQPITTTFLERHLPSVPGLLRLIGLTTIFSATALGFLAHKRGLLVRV

[21] = Volume of distribution at steady state in mouse at 1 mg/kg, iv; format: ADME, organism-based; conditions: in vivo, read-out: Vdss
Mus musculus = assay: Induction of LY96 mRNA in CB17-scid mouse xenografted with human Kasumi-1 cells at 0.5 and 1.5 mg/kg, po administered for 14 days; format: functional, organism-based
OCI-AML-3 = assay: Growth inhibition on human OCI-AML3 cells measured upto 12 days by Cell Titer-Glo luminescent cell viability assay; format: functional; conditions: OCI-AML-3, 288 h
[22] = biological target: T3, Amine oxidase [flavin-containing] A (Homo sapiens, UniProt P21397); assay: Inhibition of MAO-A (unknown origin)
T3 sequence (P21397 whole entry): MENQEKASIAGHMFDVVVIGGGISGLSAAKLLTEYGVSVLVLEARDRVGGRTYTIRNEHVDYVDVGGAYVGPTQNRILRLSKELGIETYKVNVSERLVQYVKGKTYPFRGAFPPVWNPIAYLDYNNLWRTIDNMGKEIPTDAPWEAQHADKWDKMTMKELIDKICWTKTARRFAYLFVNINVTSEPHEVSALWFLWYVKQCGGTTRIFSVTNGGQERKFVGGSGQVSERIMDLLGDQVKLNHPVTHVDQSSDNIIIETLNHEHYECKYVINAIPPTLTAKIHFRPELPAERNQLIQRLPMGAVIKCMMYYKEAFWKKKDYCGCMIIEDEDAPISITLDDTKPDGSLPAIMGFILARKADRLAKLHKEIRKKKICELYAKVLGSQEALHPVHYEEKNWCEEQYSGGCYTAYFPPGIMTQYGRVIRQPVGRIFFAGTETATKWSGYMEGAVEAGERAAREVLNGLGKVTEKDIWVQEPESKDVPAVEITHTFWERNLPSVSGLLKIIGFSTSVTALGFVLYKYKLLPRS

Work on `C(=C\C1CC1NCC1CCNCC1)/c1ccccc1` (stereo not given) yielded a fraction unbound [1] of no more than 0.05.
For `CC/C(=C\c1ccccc1)[C@@H]1C[C@H]1NC1CC2(C1)CN(CC(F)F)C2`, the microsomal CLint [2] was 175 µL/min/mg, the IC50 [3] was less than 3 nM and the microsomal CLint [4] was 883 µL/min/mg. It also gave a microsomal CLint [5] of 133 µL/min/mg, a GI50 (Kasumi 1 [6]) of 110 nM and an EC50 [7] of 7 nM. For the same compound, the microsomal CLint [8] was 480 µL/min/mg.
In the case of `CC/C(=C\c1ccccc1)[C@@H]1C[C@H]1NC1CC2(CNC2)C1`, the microsomal CLint [2] is reported as 19 µL/min/mg, the microsomal CLint [4] is reported as 17 µL/min/mg and the microsomal CLint [5] is reported as 11 µL/min/mg. It also gave a GI50 (Kasumi 1 [6]) of 11 nM and a microsomal CLint [8] of 14 µL/min/mg.
`CC/C(=C\c1ccccc1)[C@@H]1C[C@H]1NC1CC2(CCN(CCO)CC2)C1` gave a microsomal CLint [2] of 19 µL/min/mg, an IC50 [3] of less than 3 nM and a microsomal CLint [4] of 28 µL/min/mg. It also gave a microsomal CLint [5] of 10 µL/min/mg, a GI50 (Kasumi 1 [6]) of 1 nM and an EC50 [7] of 5 nM. It also gave a microsomal CLint [8] of 39 µL/min/mg.
Work on `C/C(=C\c1ccccc1)[C@@H]1C[C@H]1NC1CCNCC1` (racemic) yielded an IC50 [3] of less than 2.8 nM.
Compound `CC/C(=C\c1ccccc1)[C@@H]1C[C@H]1NC1CC2(C1)CN(C(C)=O)C2` has a microsomal CLint [2] of 48 µL/min/mg, a microsomal CLint [4] of 76 µL/min/mg and a microsomal CLint [5] of 18 µL/min/mg. For the same compound, the GI50 (Kasumi 1 [6]) was 41 nM and the microsomal CLint [8] was 87 µL/min/mg.
With `O=C(O)c1ccc(CN2CCC(CN[C@@H]3C[C@H]3c3ccccc3)CC2)cc1` [GSK2879552] the Ratio [9] was 680 M⁻¹ s⁻¹, the Kinact [10] was 0.39 min⁻¹ and the Ki [11] was 9.6 nM. For the same compound, the IC50 [3] was 212 nM, the GI50 (Kasumi 1 [6]) was 20 nM and the EC50 [7] was 54 nM.
For `CC/C(=C\c1ccccc1)[C@@H]1C[C@H]1NC1CC2(C1)CN(CCO)C2`, the GI50 (MV4-11) was 5 nM, the GI50 (MOLM-13) was 893 nM and the GI50 (NOMO-1) was 78 nM. The microsomal CLint [2] was 15 µL/min/mg, the Activity [12] was “<= 5%” and the Ratio [9] was 1e+06 M⁻¹ s⁻¹. The Kinact [10] was 0.38 min⁻¹, the bioavailability [13] was 59% and the half-life [14] was 1520 min. The TGI (Kasumi 1 [15]) was “Dose-dependent effect”, the GI50 (SET-2) was 37 nM and the Activity [16] was “Non-Toxic”. The Ki [11] was 6.1 nM, the AUC(0-inf) [17] was 189 ng·h/mL and the GI50 (SKM-1) was 14 nM. For the same compound, the IC50 [3] was less than 3 nM, the GI50 (OCI-AML-5) was 332 nM and the microsomal CLint [4] was 25 µL/min/mg. The microsomal CLint [5] was 9 µL/min/mg, the GI50 (Kasumi 1 [6]) was 1 nM and the Cmax [18] was 40 ng/mL. The EC50 [7] was 2 nM, the microsomal CLint [8] was 41 µL/min/mg and the clearance [19] was 162 mL/min/kg. For the same compound, the IC50 [20] was greater than 80 µM, the Vd [21] was 118 L/kg and the Activity (Mus musculus) was “Active”. The GI50 (OCI-AML-3) was 271 nM and the IC50 [22] was greater than 80 µM.
In the case of `CC/C(=C\c1ccccc1)[C@@H]1C[C@H]1NC1CC2(C1)CN(C1COC1)C2`, the microsomal CLint [2] is reported as 43 µL/min/mg, the microsomal CLint [4] is reported as 85 µL/min/mg and the microsomal CLint [5] is reported as 49 µL/min/mg. For the same compound, the GI50 (Kasumi 1 [6]) was 1 nM and the microsomal CLint [8] was 283 µL/min/mg.
`CC/C(=C\c1ccccc1)[C@@H]1C[C@H]1NC1CC2(C1)CN(S(C)(=O)=O)C2` gave a microsomal CLint [2] of 80 µL/min/mg, a microsomal CLint [4] of 812 µL/min/mg and a microsomal CLint [5] of 67 µL/min/mg. The GI50 (Kasumi 1 [6]) was 17 nM and the microsomal CLint [8] was 105 µL/min/mg.
In the case of `CC/C(=C\c1ccccc1)[C@@H]1C[C@H]1NC1CCN(CCO)CC1`, the microsomal CLint [2] is reported as 27 µL/min/mg, the IC50 [3] is reported as less than 2.6 nM and the microsomal CLint [4] is reported as 46 µL/min/mg. The microsomal CLint [5] was 41 µL/min/mg, the GI50 (Kasumi 1 [6]) was 3 nM and the EC50 [7] was 4 nM. For the same compound, the microsomal CLint [8] was 106 µL/min/mg.
For `CC/C(=C\c1ccccc1)[C@@H]1C[C@H]1N[C@H]1CC[C@H](NCCO)CC1` (racemic), the IC50 [3] was less than 1.8 nM and the EC50 [7] was 6 nM.
